Assay results: PubChem BioAssay AID624129 (Sanford-Burnham Center for Chemical Genomics, 2012)
Activity calls are given as the source filed them. No rule for the calls is given here.

Key:
Assay in all cases: potency against CXCR6 with APJ panel – cell-based, beta-arrestin, DiscoveRx, uHTS hits, dose response (AID 624129)
[1] = molecular target: C-C chemokine receptor type 6 (Homo sapiens) (UniProt P51684); conditions: CXCR6 beta-arrestin (DiscoveRx) antagonist cell assay
[2] = molecular target: Apelin receptor (Homo sapiens) (UniProt P35414); conditions: CXCR6 beta-arrestin (DiscoveRx) antagonist cell assay, APJ
[3] = molecular target: Beta-galactosidase (Escherichia coli) (UniProt Q8VNN2); conditions: CXCR6 beta-arrestin (DiscoveRx) antagonist cell assay, b-galactosidase
[4] = molecular target: C-X-C chemokine receptor type 6 (Homo sapiens) (UniProt O00574); conditions: CXCR6 beta-arrestin (DiscoveRx) antagonist cell assay; for inhibition: CXCR6, run 1, dose range 2, at 80 µM (top of the series)
[5] = CCR6, dose range 1, mean IC50 across replicates
[6] = dose range 1, mean IC50 across replicates
[7] = CXCR6, dose range 1, mean IC50 across replicates

C-X-C chemokine receptor type 6 (Homo sapiens), sequence (O00574 whole entry, looked up): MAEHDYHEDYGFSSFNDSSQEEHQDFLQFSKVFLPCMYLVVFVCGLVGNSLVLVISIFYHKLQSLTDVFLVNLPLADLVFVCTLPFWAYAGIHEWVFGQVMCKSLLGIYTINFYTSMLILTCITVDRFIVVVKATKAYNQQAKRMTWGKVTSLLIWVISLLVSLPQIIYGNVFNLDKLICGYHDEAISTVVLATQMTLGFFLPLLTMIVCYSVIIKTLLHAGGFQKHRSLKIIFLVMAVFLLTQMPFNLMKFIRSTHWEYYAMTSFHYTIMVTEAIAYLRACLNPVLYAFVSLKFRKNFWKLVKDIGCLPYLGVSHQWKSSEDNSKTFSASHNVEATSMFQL
Beta-galactosidase (Escherichia coli), sequence (Q8VNN2 whole entry, looked up): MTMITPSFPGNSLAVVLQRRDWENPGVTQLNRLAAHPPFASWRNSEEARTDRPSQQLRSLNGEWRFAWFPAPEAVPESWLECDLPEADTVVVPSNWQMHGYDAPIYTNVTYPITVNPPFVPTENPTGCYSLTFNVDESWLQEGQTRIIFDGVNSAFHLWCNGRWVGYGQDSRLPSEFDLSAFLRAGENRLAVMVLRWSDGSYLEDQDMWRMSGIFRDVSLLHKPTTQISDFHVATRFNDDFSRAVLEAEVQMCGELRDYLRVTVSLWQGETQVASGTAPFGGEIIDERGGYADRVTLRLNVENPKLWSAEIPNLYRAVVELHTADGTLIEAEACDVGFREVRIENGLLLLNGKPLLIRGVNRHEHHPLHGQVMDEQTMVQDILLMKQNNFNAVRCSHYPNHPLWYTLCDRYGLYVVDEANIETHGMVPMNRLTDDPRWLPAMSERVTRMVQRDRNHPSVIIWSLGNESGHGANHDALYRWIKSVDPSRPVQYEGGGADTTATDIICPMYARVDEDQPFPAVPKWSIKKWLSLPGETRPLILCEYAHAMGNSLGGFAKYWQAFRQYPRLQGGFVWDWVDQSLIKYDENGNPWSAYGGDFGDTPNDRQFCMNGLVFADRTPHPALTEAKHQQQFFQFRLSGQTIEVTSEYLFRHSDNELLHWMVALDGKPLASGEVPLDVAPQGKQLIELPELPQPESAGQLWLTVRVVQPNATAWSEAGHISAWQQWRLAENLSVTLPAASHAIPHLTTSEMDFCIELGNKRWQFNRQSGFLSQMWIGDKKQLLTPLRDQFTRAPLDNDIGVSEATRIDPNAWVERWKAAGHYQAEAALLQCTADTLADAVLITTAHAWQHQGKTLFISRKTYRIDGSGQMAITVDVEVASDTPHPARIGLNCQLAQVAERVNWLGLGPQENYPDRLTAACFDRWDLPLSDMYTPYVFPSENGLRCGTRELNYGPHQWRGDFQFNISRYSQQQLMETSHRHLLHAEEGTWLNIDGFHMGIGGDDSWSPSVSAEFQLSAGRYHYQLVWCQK

Structure (SMILES) | IC50 ([1]; CCR6, dose range 1) | IC50 [1, 5] | IC50 ([1]; CCR6, run 2, dose range 1) | IC50 [2, 6] | IC50 ([2]; run 2, dose range 1) | IC50 ([2]; run 3, dose range 1) | IC50 ([3]; dose range 1) | IC50 [3, 6] | IC50 ([4]; CXCR6, dose range 1) | IC50 [4, 7] | IC50 ([4]; CXCR6, run 1, dose range 2) | IC50 ([4]; CXCR6, run 2, dose range 1) | IC50 ([4]; CXCR6, run 2, dose range 2) | IC50 ([2]; dose range 1) | inhibition [4]
Cc1cnc(C(=O)Nc2cccc3cccnc23)cn1 | 28.6 µM | 28.6 µM | > 80 µM | > 80 µM | > 80 µM | > 80 µM | > 80 µM (inactive) | > 80 µM | inactive | 22.4 µM | 6.94 µM | > 80 µM | 12 µM |  | 
CCCCCCCCn1sccc1=O | 6.52 µM | 6.83 µM | 7.14 µM | 8.1 µM | 7.99 µM | 6.58 µM | > 80 µM (inactive) | > 80 µM | 6.96 µM | 8.16 µM | 6.75 µM | 8.67 µM | 10.2 µM | 9.73 µM | 
Cc1cc(S(=O)(=O)c2ccc(Cl)cc2)nc(S(=O)(=O)c2ccc(Cl)cc2)c1C#N |  | 30.5 µM | 30.5 µM | 37 µM | 31.3 µM | 56.9 µM | inactive | 50.1 µM | inactive | 18.3 µM |  | 8.04 µM |  | 22.9 µM | 93.1%
Oc1c(Br)cc(Br)cc1C=NCc1ccccc1 | 16.8 µM | 18.6 µM | 20.5 µM | 17.9 µM | 21.6 µM | 15.1 µM | 28.5 µM | 28.5 µM | inactive | 18.1 µM | 10.2 µM | 22.9 µM | 10.6 µM | 17 µM | 
C=C1CC2(OC1=O)c1ccccc1CCc1ccccc12 | 15.1 µM | 12.9 µM | 10.7 µM | > 80 µM | > 80 µM | > 80 µM | > 80 µM (inactive) | > 80 µM | inactive | 18.7 µM |  | 15.8 µM |  |  | 58.6%
Cc1ccc(C(=O)/C=C/C(=O)c2ccc(C)cc2)cc1 |  | > 80 µM | > 80 µM | > 80 µM | > 80 µM | > 80 µM | > 80 µM (inactive) | > 80 µM | > 80 µM (inactive) | > 80 µM |  | > 80 µM |  |  | 19.4%
C/C(=N\NC(=O)C(C)Oc1ccc([N+](=O)[O-])cc1)c1ccccn1 (configuration not stated) | 2.61 µM | 3.11 µM | 3.6 µM | 8.09 µM | 3.41 µM | 17.4 µM | > 80 µM (inactive) | > 80 µM | 6.22 µM | 3.92 µM | 2.75 µM | 4.5 µM | 2.23 µM | 3.43 µM | 
CC(=NNc1nc2ccccc2s1)c1ncccn1 | 7.51 µM | 8.91 µM | 10.3 µM | 17.4 µM | 20.5 µM | 14.8 µM | > 80 µM (inactive) | > 80 µM | inactive | 11.3 µM |  | 10.5 µM |  | 16.9 µM | 125%
Cc1c(CCCl)c(Cl)n2c(nc3ccccc32)c1C#N | inactive | 41.5 µM | 51.1 µM | > 80 µM | > 80 µM | > 80 µM | > 80 µM (inactive) | > 80 µM |  | 6.38 µM | 5.75 µM | > 80 µM | 7.02 µM | > 80 µM (inactive) | 
COc1ccc(C2CC(c3c(O)n(CCc4ccccc4)c(=O)[nH]c3=O)=NN2)cc1OC (configuration not stated) | 14.8 µM | 18 µM | 21.2 µM | 14.3 µM | 22.1 µM | 10.4 µM | inactive | 52 µM | inactive | 14.2 µM | 6.37 µM | 22.4 µM | 8.63 µM | 10.5 µM | 
COc1ccc(C(=O)/C=C/C(=O)N(CC(=O)NC2CCCCC2)Cc2ccccc2)c(O)c1 |  | > 80 µM | > 80 µM | > 80 µM | > 80 µM | > 80 µM | > 80 µM (inactive) | > 80 µM | > 80 µM (inactive) | > 80 µM |  | > 80 µM |  |  | 9.34%
Cc1cccc(C(=O)Nc2ccc(C(=O)/C=C/c3ccncc3)cc2)c1 |  | > 80 µM | > 80 µM | > 80 µM | > 80 µM | > 80 µM | > 80 µM (inactive) | > 80 µM | > 80 µM (inactive) | > 80 µM |  | > 80 µM |  |  | -26.4%
Cc1cccc(C)c1NC(=O)c1nc(S(=O)(=O)Cc2ccccc2)ncc1Cl |  | > 80 µM | > 80 µM | > 80 µM | > 80 µM | > 80 µM | > 80 µM (inactive) | > 80 µM | > 80 µM (inactive) | > 80 µM |  | > 80 µM |  |  | -9.6%
CN(C)S(=O)(=O)c1cccc(NC(=O)CSc2cccc3cccnc23)c1 | 37.3 µM | 34.1 µM | 30.8 µM | 48.1 µM | 47.7 µM | 48.7 µM | > 80 µM (inactive) | > 80 µM | inactive | 30.8 µM |  | 27.2 µM |  | 47.9 µM | 123%
CCC(C)c1ccc(O)c(NC(=S)NC(=O)c2cccnc2)c1 (configuration not stated) | 7.67 µM | 12 µM | 16.3 µM | 11.3 µM | 14.6 µM | 10.5 µM | inactive | 56 µM | inactive | 12.9 µM | 8.01 µM | 20.2 µM | 12.9 µM | 8.9 µM | 
CNc1cc(Cl)c2nonc2c1[N+](=O)[O-] | 3.13 µM | 3.29 µM | 3.46 µM | 8.61 µM | 4.89 µM | 15.1 µM | > 80 µM (inactive) | > 80 µM | 3.61 µM | 3.39 µM | 3.02 µM | 4.12 µM | 2.83 µM | 5.88 µM | 
Cc1ccc(/C=N/NC(=S)N2CCOCC2)cc1 | 3.58 µM | 4.25 µM | 4.93 µM | 5.15 µM | 5.63 µM | 4.93 µM | > 80 µM (inactive) | > 80 µM | 4.96 µM | 3.83 µM | 3.14 µM | 4.53 µM | 2.7 µM | 4.87 µM | 
Fc1ccc(NC(=S)Nc2nccs2)cc1 | 10.8 µM | 12.6 µM | 14.3 µM | 13.7 µM | 14.1 µM | 13.3 µM | > 80 µM (inactive) | > 80 µM | inactive | 14.1 µM | 8.52 µM | 14 µM | 13.3 µM | 13.6 µM | 
